Experimental data from the SangsterLogP compilation.

Assay: method code SF-AS, from DOI: 10.1002/ps.2780410210

| SMILES | logP |
| --- | --- |
| CC(C)(C)N(NC(=O)c1ccccc1)C(=O)c1ccc(Cl)cc1Cl | 3.55 |
| CC(C)(C)N(NC(=O)c1ccccc1)C(=O)c1ccc(C#N)cc1 | 2.5 |
| CC(C)(C)N(NC(=O)c1ccccc1)C(=O)c1ccccc1 | 2.45 |
| CC(C)(C)N(NC(=O)c1ccccc1)C(=O)c1c(Cl)cccc1Cl | 2.56 |
| CC(C)(C)N(NC(=O)c1ccccc1)C(=O)c1ccccc1C(F)(F)F | 2.85 |
| CC(C)(C)N(NC(=O)c1ccccc1)C(=O)c1c(F)cccc1F | 2.16 |
| Cc1c(Cl)cccc1C(=O)N(NC(=O)c1ccccc1)C(C)(C)C | 3.57 |
| CC(C)(C)N(NC(=O)c1ccccc1)C(=O)c1ccc(Cl)c(Cl)c1 | 4.25 |
| Cc1ccc(C)c(C(=O)N(NC(=O)c2ccccc2)C(C)(C)C)c1 | 3.25 |
| CC(C)(C)N(NC(=O)c1ccccc1)C(=O)c1ccccc1Br | 2.69 |
| Cc1ccccc1C(=O)N(NC(=O)c1ccccc1)C(C)(C)C | 2.75 |
| CC(C)(C)N(NC(=O)c1ccccc1)C(=O)c1ccc([N+](=O)[O-])cc1 | 2.63 |
| Cc1ccc(C(=O)N(NC(=O)c2ccccc2)C(C)(C)C)c(C)c1 | 3.18 |
| CC(C)(C)N(NC(=O)c1ccccc1)C(=O)c1ccc(C(F)(F)F)cc1 | 3.77 |
| CC(C)(C)N(NC(=O)c1ccccc1)C(=O)c1c(F)cccc1Cl | 2.34 |
| COc1ccc(C(=O)N(NC(=O)c2ccccc2)C(C)(C)C)cc1 | 2.56 |
| CSc1ccccc1C(=O)N(NC(=O)c1ccccc1)C(C)(C)C | 2.6 |
| CC(C)(C)N(NC(=O)c1ccccc1)C(=O)c1cccc(C(F)(F)F)c1 | 3.61 |
| CCc1ccccc1C(=O)N(NC(=O)c1ccccc1)C(C)(C)C | 2.96 |
| Cc1ccc(C(=O)N(NC(=O)c2ccccc2)C(C)(C)C)cc1 | 2.99 |
| CC(C)(C)N(NC(=O)c1ccccc1)C(=O)c1ccc(Cl)cc1 | 3.42 |
| CC(C)(C)N(NC(=O)c1ccccc1)C(=O)c1cccc([N+](=O)[O-])c1 | 2.73 |

| SMILES | logP |
| --- | --- |
| CC(C)(C)N(NC(=O)c1ccccc1)C(=O)c1cccc(Cl)c1Cl | 3.41 |
| CC(C)(C)N(NC(=O)c1ccccc1)C(=O)c1ccccc1I | 2.83 |
| Cc1ccc(C(=O)N(NC(=O)c2ccccc2)C(C)(C)C)cc1C | 3.34 |
| CC(C)(C)N(NC(=O)c1ccccc1)C(=O)c1cccc(Br)c1 | 3.49 |
| CC(C)(C)N(NC(=O)c1ccccc1)C(=O)c1c(F)c(F)c(F)c(F)c1F | 3.25 |
| CC(C)(C)N(NC(=O)c1ccccc1)C(=O)c1cccc(I)c1 | 3.72 |
| Cc1cccc(C(=O)N(NC(=O)c2ccccc2)C(C)(C)C)c1C | 3.1 |
| CC(C)(C)N(NC(=O)c1ccccc1)C(=O)c1cccc(F)c1 | 2.78 |
| CC(C)(C)N(NC(=O)c1ccccc1)C(=O)c1cc(Cl)ccc1Cl | 3.36 |
| CC(C)(C)N(NC(=O)c1ccccc1)C(=O)c1ccccc1[N+](=O)[O-] | 2.27 |
| CC(C)(C)N(NC(=O)c1ccccc1)C(=O)c1cc(F)c(F)c(F)c1F | 3.44 |
| CC(C)(C)N(NC(=O)c1ccccc1)C(=O)c1cccc(Cl)c1 | 3.28 |
| Cc1cccc(C(=O)N(NC(=O)c2ccccc2)C(C)(C)C)c1 | 2.79 |
| CC(C)(C)N(NC(=O)c1ccccc1)C(=O)c1cccc(C#N)c1 | 2.34 |
| CC(C)(C)N(NC(=O)c1ccccc1)C(=O)c1ccc(F)cc1 | 2.85 |
| CC(C)(C)N(NC(=O)c1ccccc1)C(=O)c1ccc(I)cc1 | 3.78 |
| COc1ccc(C(=O)N(NC(=O)c2ccccc2)C(C)(C)C)cc1OC | 2.09 |
| COc1ccccc1C(=O)N(NC(=O)c1ccccc1)C(C)(C)C | 2.04 |
| COc1cccc(C(=O)N(NC(=O)c2ccccc2)C(C)(C)C)c1 | 2.56 |
| CC(C)(C)N(NC(=O)c1ccccc1)C(=O)c1ccccc1F | 2.38 |
| CC(C)(C)N(NC(=O)c1ccccc1)C(=O)c1ccc(Br)cc1 | 3.66 |
| Cc1cc(C)cc(C(=O)N(NC(=O)c2ccccc2)C(C)(C)C)c1 | 3.39 |
